We go through nine molecules from article PMC6407579, “New flavonoid – N,N-dibenzyl(N-methyl)amine hybrids: Multi-target-directed agents for Alzheimer´s disease endowed with neurogenic properties” (Journal of Enzyme Inhibition and Medicinal Chemistry, 2019).

Several values for one entry are separate records, joined by “and”; a condition that tells them apart may be missing. Equal values may be shown once. Read-outs that look alike come from different tables or passages of the source. Bounds are passed on as bounds.

Data set [1] concerns the target T1, recombinant hMAO-B (Homo sapiens, UniProt P27338).
T1 sequence (P27338 1-520): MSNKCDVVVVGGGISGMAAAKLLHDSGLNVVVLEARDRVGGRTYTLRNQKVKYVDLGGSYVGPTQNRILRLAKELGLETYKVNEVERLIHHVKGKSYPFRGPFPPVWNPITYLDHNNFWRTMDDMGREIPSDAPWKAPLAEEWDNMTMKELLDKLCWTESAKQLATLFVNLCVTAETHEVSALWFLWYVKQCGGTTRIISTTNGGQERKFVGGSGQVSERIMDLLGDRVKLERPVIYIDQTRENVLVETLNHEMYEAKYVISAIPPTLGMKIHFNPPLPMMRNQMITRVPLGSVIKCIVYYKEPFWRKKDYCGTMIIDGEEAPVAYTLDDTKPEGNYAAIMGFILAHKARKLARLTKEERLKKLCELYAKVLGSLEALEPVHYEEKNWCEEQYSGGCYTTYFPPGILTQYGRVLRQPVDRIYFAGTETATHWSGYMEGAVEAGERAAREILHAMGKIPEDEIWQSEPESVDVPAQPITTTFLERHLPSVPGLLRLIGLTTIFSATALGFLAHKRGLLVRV
Put plainly: biochemical. It is filed as biochemical. The note with it: for IC50: mean ± SEM (n = 3), 100 µM highest concentration tested.

A short description of data set [2]: In vitro blood-brain barrier permeation assay (PAMPA-BBB). It is filed as in vitro ADME. The note with it: pig, pH 7.4, porcine brain lipid, PBS:ethanol (70:30), 25 °C, read-out: PAMPA-BBB permeability in the CNS (Pe). The protocol: Prediction of the brain penetration was evaluated using a parallel artificial membrane permeation assay (PAMPA-BBB), in a similar manner as previously described[36]^,[46]^,[51–53]. Pipetting was performed with a semi-automatic pipettor (CyBi®-SELMA) and UV reading with a microplate spectrophotometer (Multiskan Spectrum, Thermo Electron Co.). Commercial drugs, phosphate buffered saline solution at pH 7.4 (PBS), and dodecane were purchased from Sigma, Aldrich, Acros, and Fluka. Millex filter units (PVDF membrane, diameter 25 mm, pore size 0.45 μm) were acquired from Millipore. The porcine brain lipid (PBL) was obtained from Avanti Polar Lipids. The donor microplate was a 96-well filter plate (PVDF membrane, pore size 0.45 μm) and the acceptor microplate was an indented 96-well plate, both from Millipore. The acceptor 96-well microplate was filled with 200 μL of PBS: ethanol (70:30) and the filter surface of the donor microplate was impregnated with 5 μL of porcine brain lipid (PBL) in dodecane (20 mg mL^−1). Compounds were dissolved in PBS: ethanol (70:30) at 100 μg mL^−1, filtered through a Millex filter, and then added to the donor wells (200 μL). The donor filter plate was carefully put on the acceptor plate to form a sandwich, which was left undisturbed for 120 min at 25 °C. After incubation, the donor plate is carefully removed and the concentration of compounds in the acceptor wells was determined by UV-Vis spectroscopy. Every sample is analysed at five wavelengths, in four wells and at least in three independent runs, and the results are given as the mean ± standard deviation. In each experiment, 11 quality control standards of known BBB permeability were included to validate and normalise the analysis set.
To check if new compounds could be able to reach their CNS-targets, we used the in vitro parallel artificial membrane permeability assay for the blood-brain barrier (PAMPA-BBB) described by Di et al.[87], and partially modified by us for testing molecules with limited water-solubility[36]^,[46]^,[51–53]. The passive CNS-permeation of new compounds 1–13 through a lipid extract of porcine brain was measured at room temperature. In each experiment, 11 commercial drugs of known brain permeability were also tested and their permeability values normalised to the reported PAMPA-BBB data. […].
(In general: In PAMPA a lipid-coated filter parts donor from acceptor wells.)

Data set [3] has as its target T2, human recombinant AChE (hAChE) (Homo sapiens, UniProt P22303).
T2 construct: purchased Sigma Chemical Co
Briefly: biochemical. The protocol:
The Ellman method was followed, using human recombinant AChE and BuChE from human serum. The assay solution consisted of 0.1 M phosphate buffer pH 8.0, 400 μM 5,5´-dithiobis(2-nitrobenzoic acid) (DTNB, Ellman’s reagent), 0.05 U/mL hAChE (Sigma Chemical Co.) or 0.024 U/mL hBuChE (Sigma Chemical Co.), and 800 μM acetylthiocholine iodide, or 500 μM butyrylthiocholine as the substrate of the enzymatic reaction, respectively. The compounds tested were added to the assay solution and preincubated with the enzyme for 5 min at 30 °C. After that period, the substrate was added.

The target in data set [4] is T3, recombinant hMAO-A (Homo sapiens, UniProt P21397).
T3 sequence (P21397 1-527): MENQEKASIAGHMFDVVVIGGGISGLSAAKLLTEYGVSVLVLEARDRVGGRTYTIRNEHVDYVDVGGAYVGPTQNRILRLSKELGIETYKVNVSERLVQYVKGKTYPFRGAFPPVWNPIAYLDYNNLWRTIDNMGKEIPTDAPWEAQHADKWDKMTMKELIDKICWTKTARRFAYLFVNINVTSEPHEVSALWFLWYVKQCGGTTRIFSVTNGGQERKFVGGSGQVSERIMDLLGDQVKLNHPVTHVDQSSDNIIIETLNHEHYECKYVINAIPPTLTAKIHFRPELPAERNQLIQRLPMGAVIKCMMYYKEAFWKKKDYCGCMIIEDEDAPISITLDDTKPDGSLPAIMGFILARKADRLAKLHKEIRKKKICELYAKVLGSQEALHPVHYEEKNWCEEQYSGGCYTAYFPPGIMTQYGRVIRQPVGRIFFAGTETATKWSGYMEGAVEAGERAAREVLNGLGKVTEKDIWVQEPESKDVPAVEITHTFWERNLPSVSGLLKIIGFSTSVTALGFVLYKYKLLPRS
Briefly: biochemical. The note with it: mean ± SEM (n = 3); 100 µM highest concentration tested. Type of data set: biochemical.

The target in data set [5] is T4, hLOX-5 (Homo sapiens, UniProt P09917).
T4 sequence (P09917 1-674): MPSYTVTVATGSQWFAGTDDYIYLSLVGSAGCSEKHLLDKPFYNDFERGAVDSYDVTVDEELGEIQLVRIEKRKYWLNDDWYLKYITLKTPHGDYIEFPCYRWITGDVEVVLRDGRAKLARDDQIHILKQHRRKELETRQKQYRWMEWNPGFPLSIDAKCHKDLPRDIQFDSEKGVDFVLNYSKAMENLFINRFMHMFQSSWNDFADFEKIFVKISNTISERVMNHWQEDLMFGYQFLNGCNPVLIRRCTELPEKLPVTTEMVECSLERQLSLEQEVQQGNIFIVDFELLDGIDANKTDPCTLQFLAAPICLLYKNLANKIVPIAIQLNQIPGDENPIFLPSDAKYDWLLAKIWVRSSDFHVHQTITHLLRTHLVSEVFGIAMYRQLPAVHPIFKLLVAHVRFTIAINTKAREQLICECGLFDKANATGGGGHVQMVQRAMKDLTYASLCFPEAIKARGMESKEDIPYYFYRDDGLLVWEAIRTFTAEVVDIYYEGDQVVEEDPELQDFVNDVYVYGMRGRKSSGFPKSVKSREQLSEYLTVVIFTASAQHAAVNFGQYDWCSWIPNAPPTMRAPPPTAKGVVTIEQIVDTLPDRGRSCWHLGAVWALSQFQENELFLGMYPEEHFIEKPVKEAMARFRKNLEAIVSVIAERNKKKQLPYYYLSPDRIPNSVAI
Put plainly: Inhibition of human lipoxygenase-5 (fluorescence-based, Pufahl). It is filed as biochemical. The settings on record: three independent experiments. The protocol: The fluorescence-based enzyme method developed by Pufahl et al. was followed, in 96-well microtiter plates. The assay solution consists of Tris buffer (50 mM, pH 7.5), ethylenediaminetetraacetic acid (EDTA, 2 mM), CaCl2 (2 mM), arachidonic acid (AA, 3 μM), ATP (10 μM), 2',7'-dichlorodihydrofluorescein diacetate (H2DCFDA, 10 μM), hLOX-5 (100 mU/well), bovine glutathione peroxidase (GPx, 25 mU/well) and reduced glutathione (GSH, 1 mM). Compounds to be tested were added to the test solution prior to AA and ATP, and pre-incubated for a period of 10 min at room temperature. Then, the AA and ATP substrates were added; the enzymatic reaction allowed to progress for 20 min and ended by the addition of 40 μL of acetonitrile.
A selection of new hybrids covering different structural motifs was assayed as inhibitors of hLOX-5, followed the method described by Pufahl et al.[55].

The nature of data set [6]: Oxygen radical absorbance capacity assay (ORAC). The note with it: trolox taken as 1.0.
The mark [7] stands for this setting: mean ± SEM (n = 3), read-out: hAChE IC50.

As usually defined, the IC50 is the concentration at which inhibition is half-maximal.

T2 sequence (P22303 32-614): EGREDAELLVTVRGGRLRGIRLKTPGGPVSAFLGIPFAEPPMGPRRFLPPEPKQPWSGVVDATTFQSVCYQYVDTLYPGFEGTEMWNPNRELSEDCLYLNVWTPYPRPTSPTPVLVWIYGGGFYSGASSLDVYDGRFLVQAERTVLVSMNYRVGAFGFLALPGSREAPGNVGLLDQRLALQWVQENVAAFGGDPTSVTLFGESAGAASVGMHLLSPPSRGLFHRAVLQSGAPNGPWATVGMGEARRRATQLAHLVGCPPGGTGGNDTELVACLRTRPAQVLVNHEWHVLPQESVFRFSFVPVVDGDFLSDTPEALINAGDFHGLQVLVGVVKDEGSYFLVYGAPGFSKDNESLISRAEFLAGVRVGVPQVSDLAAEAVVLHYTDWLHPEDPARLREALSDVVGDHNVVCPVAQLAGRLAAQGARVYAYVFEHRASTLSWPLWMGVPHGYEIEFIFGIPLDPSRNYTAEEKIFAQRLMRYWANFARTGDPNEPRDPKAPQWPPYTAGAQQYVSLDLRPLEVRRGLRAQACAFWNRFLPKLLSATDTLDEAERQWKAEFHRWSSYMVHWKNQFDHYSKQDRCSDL

Consider `COc1cc2[nH]c(C(=O)Nc3ccc(CN(C)Cc4ccccc4)cc3)cc(=O)c2cc1OC` [Compound 11, N-(4-((benzyl(methyl)amino)methyl)phenyl)-6,7-dimethoxy-4-oxo-1,4-dihydroquinoline-2-carboxamide], for which the concentration for half-maximal inhibition (IC50) was greater than 100 µM in data set [1]; 4.5 ± 0.3 µM in data set [3] (hAChE IC50, mean ± SEM (n = 3)); greater than 100 µM in data set [4]. Besides, the Papp at 120 min, 100 μg mL^−1 in data set [2] worked out at 19.1 ± 1.5 ×10⁻⁶ cm/s.

As for `COc1ccc2[nH]c(C(=O)Nc3ccc(CN(C)Cc4ccccc4)cc3)cc(=O)c2c1` [Compound 8, N-(4-((Benzyl(methyl)amino)methyl)phenyl)-6-methoxy-4-oxo-1,4-dihydroquinoline-2-carboxamide], the IC50 in data set [1] is greater than 100 µM; in data set [5] (mean ± SEM, read-out: hLOX-5 IC50), greater than 100 µM; in data set [3] (setting [7]), 2.3 ± 0.1 µM; in data set [4], greater than 100 µM. In data set [2], the Papp at 120 min, 100 μg mL^−1 came out at 24.8 ± 2 ×10⁻⁶ cm/s. For the same molecule, in data set [5] (mean ± SEM), the “hLOX-5 IC50” value was “inactive”.

With `COc1cc(OC)c2c(=O)cc(C(=O)Nc3ccc(CN(C)Cc4ccccc4)cc3)oc2c1` [Compound 3, N-(4-((Benzyl(methyl)amino)methyl)phenyl)-5,7-dimethoxy-4-oxo-4H-chromene-2-carboxamide], the IC50 was greater than 100 µM in data set [1]; 3.2 ± 0.4 µM in data set [3] (hAChE IC50, mean ± SEM (n = 3)); greater than 100 µM in data set [4]. The Papp at 120 min, 100 μg mL^−1 in data set [2] was 19.4 ± 1.7 ×10⁻⁶ cm/s.

Turning to `CN(Cc1ccccc1)Cc1ccc(NC(=O)c2cc(=O)c3cc(O)c(O)cc3[nH]2)cc1` [Compound 12, N-(4-((benzyl(methyl)amino)methyl)phenyl)-6,7-dihydroxy-4-oxo-1,4-dihydroquinoline-2-carboxamide], the IC50 in data set [1] is greater than 100 µM; in data set [3] (hAChE IC50, mean ± SEM (n = 3)), greater than 10 µM; in data set [4], greater than 100 µM. Moreover, the Papp at 120 min, 100 μg mL^−1 in data set [2] was 8.8 ± 0.7 ×10⁻⁶ cm/s. Also, the “ORAC, trolox equivalents” value in data set [6] was 0.5 mmol of trolox/mmol of tested compound and 0.5 ± 0.1 mmol of trolox/mmol of tested compound.

Regarding `COc1cc2[nH]c(C(=O)Nc3cccc(CN(C)Cc4ccccc4)c3)cc(=O)c2cc1OC` [Compound 13, N-(3-((Benzyl(methyl)amino)methyl)phenyl)-6,7-dimethoxy-4-oxo-1,4-dihydroquinoline-2-carboxamide], the IC50 in data set [1] is greater than 100 µM; in data set [5] (hLOX-5 IC50, mean ± SEM), 36.6 ± 3.1 µM; in data set [3] (hAChE IC50, mean ± SEM (n = 3)) it was greater than 10 µM; in data set [4] it was greater than 100 µM. Besides, in data set [2], the Papp at 120 min, 100 μg mL^−1 was 15.1 ± 1.2 ×10⁻⁶ cm/s.

On to `CN(Cc1ccccc1)Cc1ccc(NC(=O)c2cc(=O)c3cc(O)ccc3[nH]2)cc1` [Compound 9, N-(4-((Benzyl(methyl)amino)methyl)phenyl)-6-hydroxy-4-oxo-1,4-dihydroquinoline-2-carboxamide], for which the concentration for half-maximal inhibition (IC50) in data set [1] is greater than 100 µM; in data set [3] (hAChE IC50, mean ± SEM (n = 3)) it was 3.1 ± 0.3 µM; in data set [4], greater than 100 µM. Also, in data set [2], the Papp at 120 min, 100 μg mL^−1 is 8.4 ± 0.7 ×10⁻⁶ cm/s. The “ORAC, trolox equivalents” value in data set [6] is 1.2 mmol of trolox/mmol of tested compound and 1.2 ± 0.1 mmol of trolox/mmol of tested compound.

`Cc1c(C)c2c(c(C)c1O)CCC(C)(C(=O)O)O2` (racemic) [Trolox, (±)-6-hydroxy-2,5,7,8-tetramethylchromane-2-carboxylic acid, reference compound]: the “ORAC, trolox equivalents” value in data set [6] is listed as 1.0 mmol of trolox/mmol of tested compound.

Consider `COc1cccc2[nH]c(C(=O)Nc3ccc(CN(C)Cc4ccccc4)cc3)cc(=O)c12` [Compound 7, N-(4-((Benzyl(methyl)amino)methyl)phenyl)-5-methoxy-4-oxo-1,4-dihydroquinoline-2-carboxamide], for which, in data set [1], the “more active in hMAO-B than in hMAO-A” value turned out to be 6.6 fold. The values for the half-maximal inhibitory concentration (IC50) in data set [1], in data set [3] (setting [7]) and in data set [4] were 15.2 ± 1 µM, 4 ± 0.4 µM and greater than 100 µM, respectively. For the same molecule, the Papp at 120 min, 100 μg mL^−1 in data set [2] turned out to be 23 ± 2.1 ×10⁻⁶ cm/s.

On to `COc1ccc2c(=O)cc(C(=O)Nc3ccc(CN(C)Cc4ccccc4)cc3)[nH]c2c1` [Compound 10, N-(4-((Benzyl(methyl)amino)methyl)phenyl)-7-methoxy-4-oxo-1,4-dihydroquinoline-2-carboxamide], for which the concentration for half-maximal inhibition (IC50) is greater than 100 µM in data set [1]; 82.8 ± 4.1 µM in data set [5] (hLOX-5 IC50, mean ± SEM); 2.3 ± 0.2 µM in data set [3] (hAChE IC50, mean ± SEM (n = 3)); greater than 100 µM in data set [4]. Further, the Papp at 120 min, 100 μg mL^−1 in data set [2] was 21.7 ± 1.9 ×10⁻⁶ cm/s.
